Assay results taken from patent US5958978A, “Specific cyclooxygenase 2 inhibitor and anti-inflammatory agent” (Kabushiki Kaisha Yakult Honsha, priority 1995, dated 1999).
Where two headings read alike, the source gives them in different places.

Key:
[1] = system: Production of Prostaglandin E2 by Stimulation of Human Synovial Cell by IL-1β; test: Effect on production of prostaglandin E2 by stimulation of human synovial cell by IL-1β; assay type: cell-based; details: for inhibition at 0.001 µM / inhibition at 0.01 µM / inhibition at 0.1 µM / inhibition at 1 µM / inhibition at 10 µM / inhibition at 100 µM: Synovial cell, human synovial cells, IL-1β, 22 hours, read-out: Percent inhibition of prostaglandin E2
Description: (Effect of 4'-Hydroxydiclofenac on Production of Prostaglandin E2 by Stimulation of Human Synovial Cell by IL-1β)
Synovial tissue obtained from a patient suffering from chronic articular rheumatism was placed in a Petri dish, cut and shredded, to which a 0.2% solution of collagenase was added. The mixture was left over for 2 hours under conditions of 5% CO2 and 37° C. An equiamount of a 0.25% solution of trypsin was further added, and the resultant mixture was left over for 2 hours. After cells isolated were collected and centrifuged (170 ×g, 10 minutes) to remove the supernatant liquid thereof, a medium [obtained by adding 10% FCS (fetal calf serum), 2 mM glutamine, 100 U/ml of penicillin, 100 μg/ml of streptomycin and 25 ng/ml of Fungizone to DMEM (Dulbecco modified minimum essential medium)] was added to the cells to wash them once. The cells were suspended in the medium, and the suspension was poured into a Petri dish and cultured under conditions of 5% CO2 and 37° C. Cells adhered to the bottom of the Petri dish were provided as synovial cells. The cells (1×10^5 cells/ml) were poured in 1-ml portions into wells of a 24-well plate and cultured under conditions of 5% CO2 and 37° C. After the cells were proliferated to an extent that they covered almost the entire surface of each well, the medium was changed to an SFM-101 medium (product of Nissui Seiyaku K.K.) containing 1% FCS. […] Furthermore, 10 μl (end concentration: 200 pg/ml) of a solution of IL-1βand 10 μl (end concentration: 10 μM) of arachidonic acid were added to conduct culture for 22 hours under conditions of 5% CO2 and 37° C. After the culture, the supernatant liquid thereof was collected and filtered through a membrane filter (pore size: 0.22 μm, MILLIPORE), thereby determining the amount of prostaglandin E2 in the filtrate in accordance with the enzyme immunoassay. The effect of each test agent on the production of prostaglandin E2 by the human synovial cells was determined by the average value of the amounts of prostaglandin E2 produced, which were obtained by repeating the above process 3 times, and the amount of prostaglandin E2 produced by using DMSO in place of the test agent to conduct the same treatment as described above.

cyclooxygenase 1 = molecular target: T1, cyclooxygenase 1 (Ovis aries, UniProt P05979); test: biochemical; details: for Inhibitory effect on cyclooxygenase 1 (in words): 0.01-100 μM
T1 sequence (P05979 25-600): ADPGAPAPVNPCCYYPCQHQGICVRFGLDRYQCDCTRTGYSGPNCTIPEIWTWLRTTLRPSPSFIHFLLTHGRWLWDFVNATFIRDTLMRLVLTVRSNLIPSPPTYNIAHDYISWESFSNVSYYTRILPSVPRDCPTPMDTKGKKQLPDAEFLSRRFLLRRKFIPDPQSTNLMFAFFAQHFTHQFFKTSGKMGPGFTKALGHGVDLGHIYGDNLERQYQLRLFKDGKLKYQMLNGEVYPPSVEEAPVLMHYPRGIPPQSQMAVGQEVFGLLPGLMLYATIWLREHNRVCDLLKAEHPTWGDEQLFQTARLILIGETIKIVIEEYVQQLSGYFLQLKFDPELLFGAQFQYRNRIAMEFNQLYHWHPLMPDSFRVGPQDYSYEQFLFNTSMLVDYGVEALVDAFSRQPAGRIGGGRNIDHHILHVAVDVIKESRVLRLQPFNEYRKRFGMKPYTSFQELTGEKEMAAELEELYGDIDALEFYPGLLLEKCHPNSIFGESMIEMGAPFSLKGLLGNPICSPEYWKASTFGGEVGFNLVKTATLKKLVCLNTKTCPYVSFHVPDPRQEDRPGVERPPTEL
Description: (§1) (Specific Inhibitory Effect on Cyclooxygenase)
(§2) After the incubation, 2 μl of a 5 mM solution of arachidonic acid (dissolved in ethanol) were added (end concentration: 100 μM), followed by incubation for additional 5 minutes. After the incubation for 5 minutes, 10 μl of a 22 mM solution of ferrous chloride were added, and the resultant mixture was cooled down to 0° C. to stop the reaction. After stopping the reaction, the reaction mixture was centrifuged at 10,000×g for 5 minutes to determine the amount of prostaglandin E2 in the supernatant liquid thereof in accordance with the enzyme immunoassay. The cyclooxygenase-inhibiting effect of each test agent was determined by the average value of the amounts of prostaglandin E2 produced, which were obtained by repeating the above process twice, and the amount of prostaglandin E2 produced by using DMSO in place of the test agent to conduct the same treatment as described above.

[2] = system: Production of Thromboxane B2 in Platelet; test: Effect on production of thromboxane B2 in platelet; assay type: cell-based, rabbit; details: for inhibitory effect on the production of thromboxane B2 (in words): 0.001-100 μM; for inhibition at 0.001 µM / inhibition at 0.01 µM / inhibition at 0.1 µM / inhibition at 1 µM / inhibition at 10 µM / inhibition at 100 µM: Oryctolagus cuniculus, Platelet, rabbit platelets, read-out: Percent inhibition of thromboxane B2
Description: (Effect of 4'-Hydroxydiclofenac on Production of Thromboxane B2 in Platelet)
Fresh blood [adding 1 volume of ACD (acid-citrate dextrose; consisting of 65 mM citric acid, 85 mM sodium citrate and 110 mM glucose) to 9 volumes of the blood] collected from the heart of a rabbit under Nembutal anesthesia was centrifuged at 200 ×g for 10 minutes to collect the supernatant liquid thereof. The supernatant liquid was centrifuged at 700 ×g for 10 minutes, and precipitated platelets were suspended in an isotonic trishydrochloric acid buffer solution [50 mM tris(hydroxymethyl)aminomethane, 150 mM NaCl, 1 mM EDTA (ethylenediaminetetraacetic acid) and 5 mM glucose; pH: 7.2]. The suspension was further centrifuged at 700 ×g for 10 minutes and washed. […] The thus-adjusted platelet suspension was poured in 1-ml portions into test tubes. […] After the incubation, 10 μl (end concentration: 2 mM) of 200 mM CaCl2 and 5 μl (end concentration: 5 μM) of 1 mM arachidonic acid were added, followed by incubation for additional 5 minutes. After the incubation, the test tube was transferred to an ice bath to stop the reaction. The test tube was centrifuged at 1,500 ×g and 4° C. for 10 minutes. After the supernatant liquid thereof was filtered through a membrane filter (pore size: 0.22 μm, MILLIPORE), the amount of thromboxane B2 in the filtrate was determined in accordance with the enzyme immunoassay. The effect of each test agent on the production of thromboxane B2 in the platelet was determined by the average value of the amounts of thromboxane B2 produced, which were obtained by repeating the above process 3 times, and the amount of thromboxane B2 produced by using DMSO in place of the test agent to conduct the same treatment as described above.

cyclooxygenase 2 = molecular target: T2, cyclooxygenase 2 (Homo sapiens, UniProt P35354)
T2 sequence (P35354 18-604): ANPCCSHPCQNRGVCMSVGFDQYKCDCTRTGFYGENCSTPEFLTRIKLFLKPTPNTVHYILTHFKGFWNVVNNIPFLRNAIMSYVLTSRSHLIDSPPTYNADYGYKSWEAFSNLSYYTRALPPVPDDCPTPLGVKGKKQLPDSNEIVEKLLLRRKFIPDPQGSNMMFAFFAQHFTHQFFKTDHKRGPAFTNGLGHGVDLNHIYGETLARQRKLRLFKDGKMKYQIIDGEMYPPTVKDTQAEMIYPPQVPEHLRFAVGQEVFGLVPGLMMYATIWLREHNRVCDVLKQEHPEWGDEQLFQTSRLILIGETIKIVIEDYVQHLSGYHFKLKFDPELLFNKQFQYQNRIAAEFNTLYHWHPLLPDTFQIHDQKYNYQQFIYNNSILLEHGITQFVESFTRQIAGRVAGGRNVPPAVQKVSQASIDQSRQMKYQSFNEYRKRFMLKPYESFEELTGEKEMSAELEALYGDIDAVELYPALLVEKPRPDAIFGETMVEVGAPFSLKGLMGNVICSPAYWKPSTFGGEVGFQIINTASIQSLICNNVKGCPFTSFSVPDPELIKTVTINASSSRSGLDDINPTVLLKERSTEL
Description: as §1, §2

[3] = read-out: Percent inhibition of cyclooxygenase 1

SMILES | inhibition at 0.001 µM [1] [%] | inhibition at 0.01 µM [1] [%] | inhibition at 0.1 µM [1] [%] | inhibition at 1 µM [1] [%] | inhibition at 10 µM [1] [%] | inhibition at 100 µM [1] [%] | Inhibitory effect on cyclooxygenase 1 (in words) (cyclooxygenase 1) | inhibitory effect on the production of thromboxane B2 (in words) [2] | inhibition at 0.001 µM [2] [%] | inhibition at 0.01 µM [2] [%] | inhibition at 0.1 µM [2] [%] | inhibition at 1 µM [2] [%] | inhibition at 10 µM [2] [%] | inhibition at 100 µM [2] [%] | also measured
O=C(O)Cc1ccccc1Nc1c(Cl)cccc1Cl [Diclofenac] | 14 | 61 | 99 | 100 | 100 | 100 | Inhibitory effects on cyclooxygenase 1 and cyclooxygenase 2 are recognized | an inhibitory effect on the production of thromboxane B2 is recognized | 46 | 70 | 68 | 77 | 93 | 99 | inhibition at 0.01 µM (cyclooxygenase 1; [3]): 25%; inhibition at 0.1 µM (cyclooxygenase 1; [3]): 25%; inhibition at 1 µM (cyclooxygenase 1; [3]): 38%; inhibition at 10 µM (cyclooxygenase 1; [3]): 57%; inhibition at 100 µM (cyclooxygenase 1; [3]): 87%
COc1ccc2c(c1)c(CC(=O)O)c(C)n2C(=O)c1ccc(Cl)cc1 [Indomethacin] | -3 | 5 | 62 | 100 | 100 | 100 |  | an inhibitory effect on the production of thromboxane B2 is recognized | 2 | 50 | 76 | 77 | 78 | 78 | 
O=C(O)Cc1ccccc1Nc1c(Cl)cc(O)cc1Cl [4'-Hydroxydiclofenac, 2-(2,6-dichloro-4-hydroxyanilino)phenylacetic acid] | -3 | 0 | 35 | 100 | 100 | 100 | no inhibitory effect on cyclooxygenase 1 is recognized | clearly weak compared with indomethacin | -25 | -25 | 0 | 7 | 15 | 77 | inhibitory effect on prostaglandin E2 (in words) ([1]; 0.001-100 μM, compared with indomethacin): almost comparable to indomethacin; Percent inhibition of cyclooxygenase 1 (cyclooxygenase 1; 0.01 μM): 0%; Percent inhibition of cyclooxygenase 1 (cyclooxygenase 1; 0.1 μM): 0%; Percent inhibition of cyclooxygenase 1 (cyclooxygenase 1; 1 μM): 13%; Percent inhibition of cyclooxygenase 1 (cyclooxygenase 1; 10 μM): 3%; Percent inhibition of cyclooxygenase 1 (cyclooxygenase 1; 100 μM): 15%; Percent inhibition of cyclooxygenase 2 (cyclooxygenase 2; 0.01 μM): 21%; Percent inhibition of cyclooxygenase 2 (cyclooxygenase 2; 0.1 μM): 18%; Percent inhibition of cyclooxygenase 2 (cyclooxygenase 2; 1 μM): 22%; Percent inhibition of cyclooxygenase 2 (cyclooxygenase 2; 10 μM): 82%; Percent inhibition of cyclooxygenase 2 (cyclooxygenase 2; 100 μM): 90%; Inhibitory effect on cyclooxygenase 2 (in words) (cyclooxygenase 2; 0.01-100 μM): only an inhibitory effect on the cyclooxygenase 2 activity is recognized
